According to US11590139B2, “Substituted aminopurine compounds, compositions thereof, and methods of treatment therewith” (Signal Pharmaceuticals, LLC, priority 2014, dated 2023):
pIC50: −log10 of the molar value.

What follows are molecules tested on Lox-IMVI melanoma cell line (assay: Lox-IMVI anti-proliferative assay (growth inhibition, Cell Titer-Glo)). Conditions: Homo sapiens; IC50 activity level in the cell-based Lox-IMVI anti-proliferative assay; read-out: Activity.
Assay type: cell-based, human
In short: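 Lox-IMVI cells in RPMI+10% FBS exposed 72 h at 37 °C to 10-point, 3-fold dilutions (0.5 nM–10 μM; 0.2% DMSO final), in duplicate. Viability by Cell Titer-Glo luminescence, with a t0 cell-number reading; data as % of DMSO control; IC50 from a four-parameter logistic fit.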
Molecule `NC(=O)[C@H]1CC[C@@H](n2c(Nc3cc(F)c(F)cc3Cl)nc3cnc(NC4CCOCC4)nc32)CC1` [Example 100, (1s,4s)-4-(8-(2-chloro-4,5-difluorophenylamino)-2-(tetrahydro-2H-pyran-4-ylamino)-9H-purin-9-yl)cyclohexanecarboxamide] has a pIC50 of under 6.00. In the case of `NC(=O)[C@H]1CC[C@@H](n2c(Nc3c(F)cccc3Cl)nc3cnc(N[C@H]4CC[C@H](O)C4)nc32)CC1` [Example 325, (1R,4s)-4-(8-(2-chloro-6-fluorophenylamino)-2-((1S,3S)-3-hydroxycyclopentylamino)-9H-purin-9-yl)cyclohexanecarboxamide], the pIC50 was under 6.00. For `CS(=O)(=O)N1CCC(Nc2ncc3nc(Nc4c(F)cc(Cl)cc4Cl)n([C@H]4CC[C@@H](C(N)=O)CC4)c3n2)CC1` [Example 296, (1s,4s)-4-(8-(2,4-dichloro-6-fluorophenylamino)-2-(1-(methylsulfonyl)piperidin-4-ylamino)-9H-purin-9-yl)cyclohexanecarboxamide], the pIC50 was 6.00 to 6.30. `NC(=O)[C@H]1CC[C@@H](n2c(Nc3c(F)cc(F)cc3F)nc3cnc(NC4CC(F)(F)C4)nc32)CC1` [Example 226, (1s,4s)-4-(2-(3,3-difluorocyclobutylamino)-8-(2,4,6-trifluorophenylamino)-9H-purin-9-yl)cyclohexanecarboxamide] showed a pIC50 of under 6.00. `NC(=O)[C@H]1CC[C@@H](n2c(Nc3c(Cl)cc(Cl)cc3Cl)nc3cnc(NC4CC(F)(F)C4)nc32)CC1` [Example 224, (1s,4s)-4-(2-(3,3-difluorocyclobutylamino)-8-(2,4,6-trichlorophenylamino)-9H-purin-9-yl)cyclohexanecarboxamide] gave a pIC50 of under 6.00. With `CC(C)Nc1ncc2nc(Nc3c(F)cc(Cl)cc3Cl)n([C@H]3CC[C@@H](C(N)=O)CC3)c2n1` [Example 99, (1s,4s)-4-(8-(2,4-dichloro-6-fluorophenylamino)-2-(isopropylamino)-9H-purin-9-yl)cyclohexanecarboxamide] the pIC50 was 6.30 to 6.60. Molecule `NC(=O)[C@H]1CC[C@@H](n2c(Nc3c(Cl)cc(Cl)cc3Cl)nc3cnc(N[C@H]4CCOC4)nc32)CC1` [Example 87, (1R,4s)-4-(2-((S)-tetrahydrofuran-3-ylamino)-8-(2,4,6-trichlorophenylamino)-9H-purin-9-yl)cyclohexanecarboxamide] has a pIC50 of 6.00 to 6.30. For `CS(=O)(=O)N1CCC(Nc2ncc3nc(Nc4c(F)cc(Cl)cc4F)n([C@H]4CC[C@@H](C(N)=O)CC4)c3n2)CC1` [Example 295, (1s,4s)-4-(8-(4-chloro-2,6-difluorophenylamino)-2-(1-(methylsulfonyl)piperidin-4-ylamino)-9H-purin-9-yl)cyclohexanecarboxamide], the pIC50 was under 6.00.

Same assay, conditions: Homo sapiens; Lox-IMVI anti-proliferative assay, IC50 activity level; read-out: Activity
`C[C@]1(C(N)=O)CC[C@H](n2c(Nc3c(Cl)cc(Cl)cc3Cl)nc3cnc(NC4CCOCC4)nc32)CC1` [Example 474, (1r,4r)-1-methyl-4-(2-(tetrahydro-2H-pyran-4-ylamino)-8-(2,4,6-trichlorophenylamino)-9H-purin-9-yl)cyclohexanecarboxamide] gave a pIC50 of under 6.00. With `N#Cc1cc(F)c(Nc2nc3cnc(NC4CC(F)(F)C4)nc3n2[C@H]2CC[C@@H](C(N)=O)CC2)c(Cl)c1` [Example 400, (1s,4s)-4-(8-(2-chloro-4-cyano-6-fluorophenylamino)-2-(3,3-difluorocyclobutylamino)-9H-purin-9-yl)cyclohexanecarboxamide] the pIC50 was 6.00 to 6.30. Work on `C[C@@H]1COCC[C@@H]1Nc1ncc2nc(Nc3c(Cl)cc(Cl)cc3Cl)n([C@H]3CC[C@@H](C(N)=O)CC3)c2n1` [Example 502, (1R,4s)-4-(2-((3S,4S)-3-methyltetrahydro-2H-pyran-4-ylamino)-8-(2,4,6-trichlorophenylamino)-9H-purin-9-yl)cyclohexanecarboxamide] yielded a pIC50 of 6.30 to 6.60. For `NC(=O)[C@H]1CC[C@@H](n2c(Nc3c(Cl)cc(C(F)(F)F)cc3Cl)nc3cnc(NC4CCCOCC4)nc32)CC1` (stereo partly shown) [Example 544, (1s,4s)-4-(8-(2,6-dichloro-4-(trifluoromethyl)phenylamino)-2-(oxepan-4-ylamino)-9H-purin-9-yl)cyclohexanecarboxamide], the pIC50 was under 6.00. In the case of `COC(=O)N1CCCC(Nc2ncc3nc(Nc4c(F)ccc(Cl)c4F)n([C@H]4CC[C@@H](C(N)=O)CC4)c3n2)C1` (stereo partly drawn) [Example 413, (R)-methyl 3-(9-((1s,4S)-4-carbamoylcyclohexyl)-8-(3-chloro-2,6-difluorophenylamino)-9H-purin-2-ylamino)piperidine-1-carboxylate], the pIC50 was under 6.00. Molecule `NC(=O)[C@H]1CC[C@@H](n2c(Nc3c(F)cc(Cl)cc3Cl)nc3cnc(N[C@H]4CCC[C@H](O)C4)nc32)CC1` [Example 464, (1R,4s)-4-(8-(2,4-dichloro-6-fluorophenylamino)-2-((1S,3S)-3-hydroxycyclohexylamino)-9H-purin-9-yl)cyclohexanecarboxamide] has a pIC50 of 6.00 to 6.30. `COC(=O)N1CCCC(Nc2ncc3nc(Nc4c(F)cc(Cl)cc4Cl)n([C@H]4CC[C@@H](C(N)=O)CC4)c3n2)C1` (stereo partly drawn) [Example 412, (R)-methyl 3-(9-((1s,4S)-4-carbamoylcyclohexyl)-8-(2,4-dichloro-6-fluorophenylamino)-9H-purin-2-ylamino)piperidine-1-carboxylate] showed a pIC50 of 6.30 to 6.60. With `C[C@]1(C(N)=O)CC[C@@H](n2c(Nc3c(F)cc(Cl)cc3Cl)nc3cnc(NC4CCC(F)(F)CC4)nc32)CC1` [Example 528, (1s,4s)-4-(8-(2,4-dichloro-6-fluorophenylamino)-2-(4,4-difluorocyclohexylamino)-9H-purin-9-yl)-1-methylcyclohexanecarboxamide] the pIC50 was over 6.60. For `CC[C@@H](CO)Nc1ncc2nc(Nc3c(F)cc(C#N)cc3Cl)n([C@H]3CC[C@@H](C(N)=O)CC3)c2n1` [Example 433, (1R,4s)-4-(8-(2-chloro-4-cyano-6-fluorophenylamino)-2-((S)-1-hydroxybutan-2-ylamino)-9H-purin-9-yl)cyclohexanecarboxamide], the pIC50 was under 6.00. Molecule `C[C@]1(C(N)=O)CC[C@@H](n2c(Nc3c(F)cc(Cl)cc3F)nc3cnc(NC4CCCC4)nc32)CC1` [Example 559, (1s,4s)-4-(8-(4-chloro-2,6-difluorophenylamino)-2-(cyclopentylamino)-9H-purin-9-yl)-1-methylcyclohexanecarboxamide] has a pIC50 of 6.30 to 6.60. With `NC(=O)[C@H]1CC[C@@H](n2c(Nc3c(F)cc(Cl)cc3Cl)nc3cnc(N[C@H]4CCC(F)(F)C4)nc32)CC1` [Example 591, (1R,4s)-4-(8-(2,4-dichloro-6-fluorophenylamino)-2-((S)-3,3-difluorocyclopentylamino)-9H-purin-9-yl)cyclohexanecarboxamide] the pIC50 was 6.30 to 6.60.

Same assay, conditions: Homo sapiens; Lox-IMVI melanoma cell line, anti-proliferative assay; read-out: Activity (IC50 activity level)
For `NC(=O)[C@H]1CC[C@@H](n2c(Nc3c(F)cc(F)cc3Cl)nc3cnc(N[C@@H]4CCCN(Cc5ccccc5)C4)nc32)CC1` [Example 751, (1S,4s)-4-(2-((R)-1-benzylpiperidin-3-ylamino)-8-(2-chloro-4,6-difluorophenylamino)-9H-purin-9-yl)cyclohexanecarboxamide], the pIC50 was under 6.00. `NC(=O)[C@H]1CC[C@@H](n2c(Nc3c(F)cc(F)cc3F)nc3cnc(NC[C@@H]4CCCC[C@@H]4O)nc32)CC1` [Example 652, (1R,4s)-4-(2-(((1S,2S)-2-hydroxycyclohexyl)methylamino)-8-(2,4,6-trifluorophenylamino)-9H-purin-9-yl)cyclohexanecarboxamide] gave a pIC50 of under 6.00. `CC(=O)N1CCC[C@@H](Nc2ncc3nc(Nc4c(F)cc(F)cc4Cl)n([C@H]4CC[C@@H](C(N)=O)CC4)c3n2)C1` [Example 797, (1S,4s)-4-(2-((R)-1-acetylpiperidin-3-ylamino)-8-(2-chloro-4,6-difluorophenylamino)-9H-purin-9-yl)cyclohexanecarboxamide] showed a pIC50 of under 6.00. In the case of `NC(=O)[C@H]1CC[C@@H](n2c(Nc3c(F)cc(F)cc3F)nc3cnc(N[C@@H]4CCCN(c5ccccc5)C4)nc32)CC1` [Example 746, (1S,4s)-4-(2-((R)-1-phenylpiperidin-3-ylamino)-8-(2,4,6-trifluorophenylamino)-9H-purin-9-yl)cyclohexanecarboxamide], the pIC50 was under 6.00. `NC(=O)[C@H]1CC[C@@H](n2c(Nc3c(Cl)cc(Cl)cc3Cl)nc3cnc(N[C@@H]4CCCN(Cc5ccccc5)C4)nc32)CC1` [Example 752, (1S,4s)-4-(2-((R)-1-benzylpiperidin-3-ylamino)-8-(2,4,6-trichlorophenylamino)-9H-purin-9-yl)cyclohexanecarboxamide] was tested, and the pIC50 was under 6.00. Work on `N#Cc1cc(Cl)c(Nc2nc3cnc(N[C@@H]4CCOC[C@H]4F)nc3n2[C@H]2CC[C@@H](C(N)=O)CC2)c(Cl)c1` [Example 762, (1S,4s)-4-(8-(2,6-dichloro-4-cyanophenylamino)-2-((3S,4R)-3-fluorotetrahydro-2H-pyran-4-ylamino)-9H-purin-9-yl)cyclohexanecarboxamide] yielded a pIC50 of over 6.60. With `N#Cc1cc(Cl)c(Nc2nc3cnc(N[C@@H]4CCCN(c5ccccc5)C4)nc3n2[C@H]2CC[C@@H](C(N)=O)CC2)c(Cl)c1` [Example 744, (1S,4s)-4-(8-(2,6-dichloro-4-cyanophenylamino)-2-((R)-1-phenylpiperidin-3-ylamino)-9H-purin-9-yl)cyclohexanecarboxamide] the pIC50 was under 6.00. Molecule `N#Cc1cc(Cl)c(Nc2nc3cnc(N[C@@H]4CCCN(Cc5ccccc5)C4)nc3n2[C@H]2CC[C@@H](C(N)=O)CC2)c(Cl)c1` [Example 753, (1S,4s)-4-(2-((R)-1-benzylpiperidin-3-ylamino)-8-(2,6-dichloro-4-cyanophenylamino)-9H-purin-9-yl)cyclohexanecarboxamide] has a pIC50 of under 6.00.

Same assay, conditions: Lox-IMVI melanoma cell line, anti-proliferative assay; read-out: Activity (IC50 activity level)
`C[C@]1(C(N)=O)CC[C@@H](n2c(Nc3c(F)cc(C#N)cc3F)nc3cnc(N[C@@H]4CCC[C@@H](O)C4)nc32)CC1` [Example 642, (1S,4s)-4-(8-(4-cyano-2,6-difluorophenylamino)-2-((1R,3R)-3-hydroxycyclohexylamino)-9H-purin-9-yl)-1-methylcyclohexanecarboxamide] showed a pIC50 of under 6.00.
